According to patent publication US11986450B2, “Methods and compositions for treating infection and inflammation with selenocyanate” (National Jewish Health, priority 2017, dated 2024):

Columns and labels:
B. cenocepacia = test: Bacterial sensitivity towards HOSCN killing; format: cell-based, Burkholderia cepacia complex (BCC); settings: CF sputum isolate, HOSCN flux for 2 hours, GOX/LPO/SCN system, pH 7.4
Procedure: (§1) FIGS. 11A-11D. […] A lactoperoxidase (LPO) system was used to generate increasing fluxes of either HOSCN or HOSeCN in presence of 400 μM of either ^−SCN or ^−SeCN. LPO in the presence of a hydrogen peroxide generating system (glucose oxidase, GOX) can convert both thiocyanate and selenocyante to their respective hypopseudohalous acid species (HOSCN and HOSeCN) that are biocides. […] Bacterial inoculums (10^6 colony forming units, CFU) were incubated with host defense system for 2 hours at room temperature and bacteria were plated on LB agar plates and cell viability was determined by dilution and counting CFUs.
(§2) LPO in the presence of a hydrogen peroxide generating system (glucose oxidase, GOX) can convert both thiocyanate and selenocyante to their respective hypopseudohalous acid species (HOSCN and HOSeCN) that are biocides. […] Bacterial inoculums (10^6 colony forming units, CFU) were incubated with host defense system for 2 hours at room temperature and bacteria were plated on LB agar plates and cell viability was determined by dilution and counting CFUs. Lethal concentrations that kill 50% of bacteria (LC50) were determined by non-linear curve fitting the data.
(§3) Bacteria were incubated for 2 hour with LPO, ^−SCN or SeCN, glucose and increasing amounts of GOX. The flux (HOX) of either HOSCN or HOSeCN was determined from standard curves of GOX/LPO and either HOSCN or HOSeCN. LC50 values were determined by curve fitting the data with nonlinear regression of log (agonist) vs normalized response.

B. dolsa = test: Bacterial sensitivity towards HOSCN killing; format: cell-based, Burkholderia cepacia complex (BCC); settings: CF sputum isolate, HOSCN flux for 2 hours, GOX/LPO/SCN system, pH 7.4
Procedure: as §1, §2, §3

B. multivorans 41 = test: Bacterial sensitivity towards HOSCN killing; format: cell-based, Burkholderia cepacia complex (BCC); settings: B. multivorans 41, CF sputum isolate; HOSCN flux for 2 hours, GOX/LPO/SCN system, pH 7.4
Procedure: as §1, §2, §3

B. vietnameisis = test: Bacterial sensitivity towards HOSCN killing; format: cell-based, Burkholderia cepacia complex (BCC); settings: HOSCN flux for 2 hours, GOX/LPO/SCN system, pH 7.4
Procedure: as §1, §2, §3

AMT-9 = test: Bacterial sensitivity towards HOSCN killing; format: cell-based, Pseudomonas aeruginosa (PA); settings: AMT-9, CF sputum isolate; HOSCN flux for 2 hours, GOX/LPO/SCN system, pH 7.4
Procedure: as §1, §2, §3

PA 39 = test: Bacterial sensitivity towards HOSCN killing; format: cell-based, Pseudomonas aeruginosa (PA); settings: PA 39, CF sputum isolate; HOSCN flux for 2 hours, GOX/LPO/SCN system, pH 7.4
Procedure: as §1, §2, §3

PA-T = test: Bacterial sensitivity towards HOSCN killing; format: cell-based, Pseudomonas aeruginosa (PA); settings: CF sputum isolate, HOSCN flux for 2 hours, GOX/LPO/SCN system, pH 7.4
Procedure: as §1, §2, §3

PA-X = test: Bacterial sensitivity towards HOSCN killing; format: cell-based, Pseudomonas aeruginosa (PA); settings: CF sputum isolate, HOSCN flux for 2 hours, GOX/LPO/SCN system, pH 7.4
Procedure: as §1, §2, §3

PAO1 = test: Bacterial sensitivity towards HOSCN killing; format: cell-based, Pseudomonas aeruginosa (PA); settings: HOSCN flux for 2 hours, GOX/LPO/SCN system, pH 7.4
Procedure: as §1, §2, §3

[1] = test system: Human bronchiolar lung cells (16HBE); test: Lung cell viability (LDH release) after HOSCN generation; format: cell-based; settings: 2 hrs, about 120 μM/hr, viability 24 hrs later
Procedure: (§4) FIGS. 4A-4B. […] Studies were conducted under similar conditions that generated about 120 μM/hr of either HOCl or HOSCN. (FIG. 4A) Human bronchiolar lung cells (16HBE) or (FIG. 4B) Pseudomonas aeruginosa (PA01) were treated for 2 hrs with glucose oxidase (GOX) system (generates H2O2), enzyme alone (MPO or LPO), or full system (enzyme+GOX), or full system with […]. Viability was assessed 24 hrs later by lactate dehydrogenase release for lung cells or determination of colony forming units (CFUs) for bacteria.

[2] = test system: Pseudomonas aeruginosa (PA01); test: Bacterial viability (CFU) after HOSCN generation; format: cell-based; settings: 2 hrs, about 120 μM/hr
Procedure: as §4

[3] = test system: Sec-TrxR activity in J774 cells; test: Sec-TrxR activity induction in J774 cells; format: cell-based; settings: 2 hours exposure, lysates measured 24 hours later
Procedure: FIG. 17. […] Cells were exposed to increasing concentrations of HOSCN, hydrogen peroxide or 100 ng/ml PA LPS for 2 hours and then cell lysates where measured 24 hours later for Sec-TrxR activity.
The role of extracellular SCN in modulating neutrophil responses to infectious stimuli, and to test how this impacts their ability to kill or suppress bacterial growth and attenuate pro-inflammatory environments is determined as provided for in Example 3 herein. De-identified human blood neutrophils from normal and CF subjects are used. Readouts include changes in bacterial growth rates, phagocytosis, and cytokine release over time correlated to changes in intracellular ^−SCN and Sec-TrxR levels. Additionally, how extracellular thiol levels modulate leukocyte function by changing intracellular thiol status and its known effects on dampening NFkB cell signaling pathways based on previous work with GSH (Gould, N. S., et al. (2011) Macropinocytosis of extracellular glutathione ameliorates tumor necrosis factor alpha release in activated macrophages. PLoS One 6, e25704) is disclosed. […] Since HOSCN is an oxidant and capable of redox signaling, examination of whether it can regulate its own metabolism by inducing Sec-TrxR expression is done.

E. coli: AB1157 = test: HOSCN reductase activity
P. aeruginosa: AMT0027L [4] = test: HOSCN reductase activity
P. aeruginosa: AMT0105L = test: HOSCN reductase activity
P. aeruginosa: AMT0294L = test: HOSCN reductase activity
P. aeruginosa: AMT0058L = test: HOSCN reductase activity
P. aeruginosa: AMT0145L = test: HOSCN reductase activity
[5] = test system: Human bronchial epithelial (16HBE) cells; test: HOSCN reductase activity; settings: human 16HBE cells
P. aeruginosa: PAO1 = test: Viability after HOSCN exposure
P. aeruginosa: AMT0027L [6] = test: Viability after HOSCN exposure; settings: late disease antibiotic-resistant CF isolate
[7] = Viability after HOSCN exposure; settings: human, human bronchial epithelial (16HBE) cells

N#CSO [HOSCN, hypothiocyanite]
HOSCN IC50 (B. cenocepacia): 59 µM/h | HOSCN IC50 (B. dolsa): 79 µM/h | HOSCN IC50 (B. multivorans 41): 18 µM/h | HOSCN IC50 (B. vietnameisis): 64 µM/h | HOSCN IC50 (AMT-9): 5 µM/h | HOSCN IC50 (PA 39): 5 µM/h | HOSCN IC50 (PA-T): 48 µM/h | HOSCN IC50 (PA-X): 13 µM/h | HOSCN IC50 (PAO1): 18 µM/h | Lung cell viability [1]: spares host lung epithelial cells | Bacterial viability (CFU) [2]: killing bacteria | Sec-TrxR activity [3]: induces Sec-TrxR activity | Apparent Vmax (HOSCN reductase activity) (E. coli: AB1157): ND^c (No activity detected. Limit of detection = 0.5 nmol mg^−1 min^−1) | Apparent Vmax (HOSCN reductase activity) (P. aeruginosa: AMT0027L [4]): ND^c (No activity detected. Limit of detection = 0.5 nmol mg^−1 min^−1) | Apparent Vmax (HOSCN reductase activity) (P. aeruginosa: AMT0105L): ND^c (No activity detected. Limit of detection = 0.5 nmol mg^−1 min^−1) | Apparent Vmax (HOSCN reductase activity) (P. aeruginosa: AMT0294L): ND^c (No activity detected. Limit of detection = 0.5 nmol mg^−1 min^−1) | Apparent Vmax (HOSCN reductase activity) (P. aeruginosa: AMT0058L): 1.2 ± 0.2 nmol/mg/min | Apparent Vmax (HOSCN reductase activity) (P. aeruginosa: AMT0145L): 1.4 ± 0.1 nmol/mg/min | Apparent Vmax (HOSCN reductase activity) [5]: 14.7 ± 1.0 nmol/mg/min | Viability (%) (P. aeruginosa: PAO1): 0% | Viability (%) (P. aeruginosa: AMT0027L [6]): 0% | viability [7]: 96.3 ± 1.6%
